Data from the supplement of paper PMC11208160.

experiment: recombinant barcode read abundance after kanamycin selection (control-corrected) (log10(CPM+1)); higher = more efficient recombination; sequences stand for … in AGTGCAGAGAAAATCGGCCAGTTTTCTCTGCCTGCAGTCCGCATGCCGT…AGATTTATGCAGCGGACTGCCTTTCTCCCAAAGTGATAAACCGGACAGTATCATGGACCGGTTTTCCCGGTAATCCGTATTTGCAAGGTTGGTTTCACT; site = the 11-nt target
Procedure: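 Pooled E. coli target-specificity screen for the IS621 bridge recombinase. Each library plasmid pairs an 11-nt target (CT core) with a bridge RNA whose target-binding loop (9-nt LTG + 4-nt RTG) is reprogrammed; the rest of the 177-nt WT IS621 bridge RNA scaffold is fixed. The plasmid is co-electroporated with a WT donor plasmid; recombinase is induced with 0.1 mM IPTG and recombinants are selected on kanamycin. Recombinant barcodes are sequenced, converted to CPM, averaged over two biological replicates and corrected by the unselected control CPM. Molecule = full bridge RNA written as DNA: LTG = specificity nt 1-9, RTG = reverse complement of specificity nt 8-11, in the WT scaffold.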
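Further: IS621 recombinase and bridge RNA in Escherichia coli cells.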

Point of comparison: “ACTTTCCCTTGGGTTCTAACCTGTTGCCT (site ACTTTCCCTAG)”, “recombinant barcode read abundance (log10)” value 0.424. Against it:
- ACTTCGACTTGGGTTCTAACCTGTTGCCT (site AGTTCGACTAG) — within 0.2 log units, 0.461
- ACTTCGACTTGGGTTCTAACCTGTTGCCT (site ATTTCGACTAG) — lower, 0.0176
- ACTTCTTCTTGGGTTCTAACCTGTTGCCT (site ACTTCTACTCG) — lower, 0.124
- ACTTCTTCTTGGGTTCTAACCTGTTGCCT (site ACTTCTTCTAG) — lower, 0.0747
- ACTTGCTCTTGGGTTCTAACCTGTTGCTT (site ACTAGCTCTAG) — within 0.2 log units, 0.448
- ACTTGCTCTTGGGTTCTAACCTGTTGCTT (site ACTTGCTCTAA) — lower, 0.136
- ACTTGGACTTGGGTTCTAACCTGTTGCAT (site ACTTGGACTAT) — higher, 1.79
- ACTTGGACTTGGGTTCTAACCTGTTGCAT (site ACTTGTACTAT) — lower, 0.0581
- ACTTGGCCTTGGGTTCTAACCTGTTGCTG (site ACGTGGCCTCA) — lower, 0.111
- ACTTGGCCTTGGGTTCTAACCTGTTGCTG (site ACTTGGCCTCA) — lower, 0.0699
- ACTTTCCCTTGGGTTCTAACCTGTTGCCT (site GCTTTGCCTAG) — lower, 0.0175
- AGAAGCACTTGGGTTCTAACCTGTTGCCA (site AGAAGCACTTG) — higher, 0.783
- AGAAGCACTTGGGTTCTAACCTGTTGCCA (site CTGTCTCCTAC) — lower, 0.00729
- AGAAGCCCTTGGGTTCTAACCTGTTGCCT (site AAAAGCCCTAG) — lower, 0.134
- AGAAGCCCTTGGGTTCTAACCTGTTGCCT (site ACAAGCCCTAG) — within 0.2 log units, 0.269
- AGAAGCCCTTGGGTTCTAACCTGTTGCCT (site AGAAGCCCTAG) — higher, 1.51
- AGAAGCCCTTGGGTTCTAACCTGTTGCCT (site ATAAGCCCTAG) — lower, 0.0722
- AGAAGTCCTTGGGTTCTAACCTGTTGCCG (site AGAAGTCCTCA) — within 0.2 log units, 0.236
- AGAAGTCCTTGGGTTCTAACCTGTTGCCG (site AGAAGTCCTCC) — lower, 0.121
- AGAAGTCCTTGGGTTCTAACCTGTTGCCG (site AGAAGTCCTCG) — higher, 0.971
- AGAAGTCCTTGGGTTCTAACCTGTTGCCG (site AGAAGTCCTCT) — lower, 0.221
- AGAATAGCTTGGGTTCTAACCTGTTGCAG (site AGAATAGCTCT) — higher, 2.13
- AGAATAGCTTGGGTTCTAACCTGTTGCAG (site AGGATAGCTCA) — lower, 0.0664
- AGAATGTCTTGGGTTCTAACCTGTTGCCT (site AGAACGTCTAG) — lower, 0.0676
- AGAATGTCTTGGGTTCTAACCTGTTGCCT (site AGAATGTCTAG) — higher, 1.98
- AGACCTCCTTGGGTTCTAACCTGTTGCTT (site AGACATCCTAA) — lower, 0.0481
- AGACCTCCTTGGGTTCTAACCTGTTGCTT (site AGACCTCCTAA) — higher, 1.39
- AGACCTCCTTGGGTTCTAACCTGTTGCTT (site AGACGTCCTAA) — lower, 0.138
- AGACCTCCTTGGGTTCTAACCTGTTGCTT (site AGACTTCCTAA) — lower, 0.0176
- AGACCTTCTTGGGTTCTAACCTGTTGCCT (site ACACCGTCTAG) — lower, 0.0168
- AGACCTTCTTGGGTTCTAACCTGTTGCCT (site AGACCTTCTAG) — higher, 1.55
- AGACGTACTTGGGTTCTAACCTGTTGCGT (site AGACGTACTAC) — higher, 1.82
- AGACGTACTTGGGTTCTAACCTGTTGCGT (site TAGTTATCTTA) — lower, 0.102
- AGAGAGACTTGGGTTCTAACCTGTTGCAC (site AGAGAGACTGT) — higher, 2.18
- AGAGAGACTTGGGTTCTAACCTGTTGCAC (site TGATAGACTGT) — lower, 0.169
- AGAGAGACTTGGGTTCTAACCTGTTGCCT (site AGAGAGACTAG) — higher, 2.43
- AGAGAGACTTGGGTTCTAACCTGTTGCCT (site AGAGCGACTAG) — lower, 0.0685
- AGAGAGACTTGGGTTCTAACCTGTTGCCT (site AGAGGGACTAG) — within 0.2 log units, 0.27
- AGAGAGACTTGGGTTCTAACCTGTTGCCT (site AGAGTGACTAG) — lower, 0.185
- AGAGCCTCTTGGGTTCTAACCTGTTGCTA (site AGAGCCTCTTA) — higher, 2.36
- AGAGCCTCTTGGGTTCTAACCTGTTGCTA (site TTCAGGGCTCT) — lower, 0.0371
- AGATCATCTTGGGTTCTAACCTGTTGCTT (site AGACCATCTAG) — lower, 0.0425
- AGATCATCTTGGGTTCTAACCTGTTGCTT (site AGATCATCTAA) — within 0.2 log units, 0.278
- AGATCCGCTTGGGTTCTAACCTGTTGCCT (site AGATCCGCTAG) — higher, 1.3
- AGATCCGCTTGGGTTCTAACCTGTTGCCT (site CGGTCCGCTAG) — within 0.2 log units, 0.346
- AGATCTCCTTGGGTTCTAACCTGTTGCCT (site AGAGCTCCTCG) — within 0.2 log units, 0.231
- AGATCTCCTTGGGTTCTAACCTGTTGCCT (site AGATCTCCTAG) — within 0.2 log units, 0.313
- AGATGGCCTTGGGTTCTAACCTGTTGCAT (site AGATGGACTCT) — lower, 0.152
- AGATGGCCTTGGGTTCTAACCTGTTGCAT (site AGATGGCCTAT) — higher, 0.991
- AGATGTACTTGGGTTCTAACCTGTTGCTG (site ACATGTACTCT) — lower, 0.0665
- AGATGTACTTGGGTTCTAACCTGTTGCTG (site AGATGTACTCA) — higher, 0.958
- AGATTAGCTTGGGTTCTAACCTGTTGCCG (site AGATTAGCTCG) — higher, 1.13
- AGATTAGCTTGGGTTCTAACCTGTTGCCG (site GCGGATCCTTA) — lower, 0.0251
- AGATTTCCTTGGGTTCTAACCTGTTGCCT (site AAATTTCCTAG) — lower, 0.0272
- AGATTTCCTTGGGTTCTAACCTGTTGCCT (site ACATTTCCTAG) — lower, 0.218
- AGATTTCCTTGGGTTCTAACCTGTTGCCT (site AGATTTCCTAG) — within 0.2 log units, 0.326
- AGATTTCCTTGGGTTCTAACCTGTTGCCT (site ATATTTCCTAG) — within 0.2 log units, 0.234
- AGCAACCCTTGGGTTCTAACCTGTTGCAA (site AGCAACCCTTT) — higher, 0.829
- AGCAACCCTTGGGTTCTAACCTGTTGCAA (site CCGGGTACTCG) — lower, 0.0862
- AGCACAACTTGGGTTCTAACCTGTTGCCT (site AGAACAACTAG) — lower, 0.0799
- AGCACAACTTGGGTTCTAACCTGTTGCCT (site AGCACAACTAG) — higher, 0.734
- AGCACAACTTGGGTTCTAACCTGTTGCCT (site AGGACAACTAG) — lower, 0.0445
- AGCACAACTTGGGTTCTAACCTGTTGCCT (site AGTACAACTAG) — within 0.2 log units, 0.498
- AGCAGAGCTTGGGTTCTAACCTGTTGCAG (site AGCAGAGCTCA) — higher, 0.631
- AGCAGAGCTTGGGTTCTAACCTGTTGCAG (site AGCAGAGCTCC) — lower, 0.224
- AGCAGAGCTTGGGTTCTAACCTGTTGCAG (site AGCAGAGCTCG) — within 0.2 log units, 0.505
- AGCAGAGCTTGGGTTCTAACCTGTTGCAG (site AGCAGAGCTCT) — higher, 2.24
- AGCAGAGCTTGGGTTCTAACCTGTTGCCG (site AGCAGAGCTCA) — lower, 0.0348
- AGCAGAGCTTGGGTTCTAACCTGTTGCCG (site AGCAGAGCTCC) — lower, 0.058
- AGCAGAGCTTGGGTTCTAACCTGTTGCCG (site AGCAGAGCTCG) — higher, 1.15
- AGCAGAGCTTGGGTTCTAACCTGTTGCCG (site AGCAGAGCTCT) — within 0.2 log units, 0.465
- AGCAGTGCTTGGGTTCTAACCTGTTGCCT (site AGCAGTGCTAG) — higher, 0.686
- AGCAGTGCTTGGGTTCTAACCTGTTGCCT (site AGCATTCCTAG) — lower, 0.0332
- AGCATCCCTTGGGTTCTAACCTGTTGCTG (site AGCATCCCTCA) — higher, 1.47
- AGCATCCCTTGGGTTCTAACCTGTTGCTG (site CATGCGACTAC) — within 0.2 log units, 0.342
- AGCCACTCTTGGGTTCTAACCTGTTGCCT (site AGCCACACTAG) — lower, 0.0426
- AGCCACTCTTGGGTTCTAACCTGTTGCCT (site AGCCACCCTAG) — lower, 0.149
- AGCCACTCTTGGGTTCTAACCTGTTGCCT (site AGCCACGCTAG) — lower, 0.153
- AGCCACTCTTGGGTTCTAACCTGTTGCCT (site AGCCACTCTAG) — higher, 1.49
- AGCCAGGCTTGGGTTCTAACCTGTTGCGG (site AGCCAGGCTCC) — higher, 1.76
- AGCCAGGCTTGGGTTCTAACCTGTTGCGG (site TCGTTTCCTAT) — lower, 0.0575
